PubChem BioAssay (NCI)
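Interpolation was linear, between the two tested concentrations surrounding the appropriate level; five concentrations were tested over 48 hours in 96-well plates. The concentration for 50% growth inhibition is given as GI50. TGI: total growth inhibition.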

Key:
Test in all cases: inhibition of tumour cell growth, NCI panel, 48 h
HCT-116 colon = test system: HCT-116 colon
LOX IMVI melanoma = test system: LOX IMVI melanoma
OVCAR-8 ovarian = test system: OVCAR-8 ovarian
SK-MEL-5 melanoma = test system: SK-MEL-5 melanoma
SK-OV-3 ovarian = test system: SK-OV-3 ovarian
SNB-75 CNS = test system: SNB-75 CNS
SR leukemia = test system: SR leukemia
SW-620 colon = test system: SW-620 colon
HS 578T breast = test system: HS 578T breast
PC-3 prostate = test system: PC-3 prostate

Row | Structure (SMILES) | TGI (HCT-116 colon) | TGI (LOX IMVI melanoma) | TGI (OVCAR-8 ovarian) | TGI (SK-MEL-5 melanoma) | TGI (SK-OV-3 ovarian) | TGI (SNB-75 CNS) | TGI (SR leukemia) | TGI (SW-620 colon) | TGI (HS 578T breast) | TGI (PC-3 prostate) | GI50 (HCT-116 colon) | GI50 (HS 578T breast) | GI50 (OVCAR-8 ovarian) | GI50 (PC-3 prostate) | GI50 (SK-MEL-5 melanoma) | GI50 (SK-OV-3 ovarian) | GI50 (SR leukemia) | GI50 (SW-620 colon) | GI50 (LOX IMVI melanoma) | GI50 (SNB-75 CNS)
1 | CC(=O)NC1C(OCc2ccccc2)OC(COC(=O)CCCCCNc2ccc([N+](=O)[O-])c3[nH]c4ccc(O)cc4c(=O)c23)C(O)C1OC(C)C(=O)N[C@@H](C)C(=O)N[C@H](CCC(=O)OCc1ccccc1)C(N)=O (stereo not given in full) | 1.34 µM | 10.7 µM | 10.8 µM | > 20 µM | 10.7 µM | 13.2 µM | 0.657 µM | 4.42 µM | – | – | – | – | – | – | – | – | – | – | – | –
2 | C/C(=N\NS(=O)(=O)c1ccc(C)cc1)c1c(O)cc(C)oc1=O | > 100 µM | > 100 µM | > 100 µM | > 100 µM | > 100 µM | > 100 µM | > 100 µM | > 100 µM | – | – | – | – | – | – | – | – | – | – | – | –
3 | NC1=NC(c2ccccc2)CC(c2cc(Cl)cc(Br)c2O)=N1 (stereo not given) | 25.8 µM | 27.7 µM | 38.5 µM | 25 µM | 42.7 µM | 28.3 µM | > 100 µM | 26.2 µM | – | – | – | – | – | – | – | – | – | – | – | –
4 | COc1cc2ccc(/C(C)=N/OC(C)=O)cc2cc1OC | > 100 µM | > 100 µM | > 100 µM | – | > 100 µM | 40.9 µM | – | > 100 µM | – | – | – | – | – | – | – | – | – | – | – | –
5 | ClC1(c2ccccc2)c2ccc(Br)cc2-c2cc(Br)ccc21 | 28.5 µM | 33.2 µM | 35.8 µM | 29.1 µM | 39.1 µM | – | 70.6 µM | 36.3 µM | 50.3 µM | 31.3 µM | – | – | – | – | – | – | – | – | – | –
6 | C=CCCC(C)N(C(=O)OC(C)(C)C)S(=O)(=O)c1ccc(C)cc1 (stereo not given) | > 100 µM | > 100 µM | > 100 µM | – | > 100 µM | > 100 µM | > 100 µM | > 100 µM | – | – | – | – | – | – | – | – | – | – | – | –
7 | CCCC1C(=O)C(CC)Cc2c(OC)ccc(OC)c21 (stereo not given) | – | > 100 µM | > 100 µM | > 100 µM | > 100 µM | > 100 µM | – | > 100 µM | – | – | – | – | – | – | – | – | – | – | – | –
8 | C[C@]12CC(C#N)C(=O)C(O)=C1CC[C@@H]1C2CC[C@@]2(C)C1CC[C@@H]2O (stereo not given in full) | > 100 µM | > 100 µM | > 100 µM | > 100 µM | > 100 µM | 63.1 µM | – | > 100 µM | – | – | – | – | – | – | – | – | – | – | – | –
9 | O=C(O)CN(c1ccccc1)S(=O)(=O)c1ccc(Cl)cc1 | – | > 100 µM | > 100 µM | – | > 100 µM | > 100 µM | – | > 100 µM | – | – | – | – | – | – | – | – | – | – | – | –
10 | S=P(c1ccccc1)(c1ccccc1)C1(C2(P(=S)(c3ccccc3)c3ccccc3)CC2)CC1 | > 100 µM | > 100 µM | > 100 µM | > 100 µM | – | > 100 µM | > 100 µM | > 100 µM | – | – | – | – | – | – | – | – | – | – | – | –
11 | Cc1ccc(NC(=O)CC/C(CC(=O)c2ccc(Cl)cc2)=N\NC(=O)C(=O)NN)cc1C | > 100 µM | > 100 µM | > 100 µM | > 100 µM | > 100 µM | > 100 µM | > 100 µM | > 100 µM | – | – | – | – | – | – | – | – | – | – | – | –
12 | CC1(C)CCC2(C(=O)O)CC[C@]3(C)C(=CCC4C5(C)CC[C@H](OC6OC(C(=O)O)C(O)C(OC7OC(CO)C(O)C(O)C7O)C6OC6OC(CO)C(O)C(O)C6O)C(C)(C)C5CCC43C)C2C1 (stereo not given in full) | > 100 µM | – | > 100 µM | > 100 µM | > 100 µM | – | > 100 µM | > 100 µM | > 100 µM | 38.5 µM | > 100 µM | 97.4 µM | > 100 µM | 20.6 µM | > 100 µM | > 100 µM | 15.6 µM | > 100 µM | – | –
13 | O=C(c1cc2c(C(F)(F)F)onc2c2ccccc12)C(F)(F)F | 1.03 µM | 18.3 µM | 7.66 µM | 15.5 µM | 46.7 µM | 15.4 µM | > 100 µM | > 100 µM | – | – | – | – | – | – | – | – | – | – | – | –
14 | CCN(CC)CCOC(=O)/C(=C/c1ccc(OC)cc1)c1cc(OC)c(OC)c(OC)c1 | > 100 µM | 18.6 µM | 74.2 µM | 11.4 µM | – | 11.6 µM | – | > 100 µM | – | – | – | – | – | – | – | – | – | – | – | –
15 | Cc1[nH]c2ccccc2c1C1CC(=O)NC1=O (stereo not given) | > 100 µM | – | > 100 µM | > 100 µM | > 100 µM | > 100 µM | – | > 100 µM | – | – | – | – | – | – | – | – | – | – | – | –
16 | CC1=C(/C=C/C2=CC(=C\C(=O)O)/CC(C3=C(C)CCCC3(C)C)C2)C(C)(C)CCC1 (stereo not given) | 37 µM | 27.6 µM | 27.8 µM | 28 µM | 27.7 µM | 28.8 µM | 24.2 µM | 29.1 µM | – | – | – | – | – | – | – | – | – | – | – | –
17 | COc1cc([C@@H]2c3cc4c(cc3[C@@H](NCc3ccc(C#N)cc3)C3COC(=O)[C@@H]32)OCO4)cc(OC)c1O (stereo not given in full) | 11.8 µM | 4.36 µM | 3.01 µM | 8.37 µM | 3.9 µM | 3.25 µM | – | 3.44 µM | – | – | – | – | – | – | – | – | – | – | – | –
18 | O=C1CC2C(=O)C1C(C(=O)O)C2C(=O)O (stereo not given) | > 100 µM | > 100 µM | > 100 µM | > 100 µM | > 100 µM | – | > 100 µM | > 100 µM | > 100 µM | > 100 µM | – | – | – | – | – | – | – | – | – | –
19 | N#Cc1ccc(-c2nc3ccc(Cl)cc3[nH]2)cc1 | – | – | > 100 µM | > 100 µM | > 100 µM | > 100 µM | > 100 µM | > 100 µM | > 100 µM | > 100 µM | – | – | – | – | – | – | – | – | – | –
20 | CC1=C2C(=O)C(C)(C)C=C2C(=O)[C@](C)(O)C12CC2 | > 1 µM | > 1 µM | > 1 µM | > 0.612 µM | > 1 µM | > 1 µM | > 1 µM | > 1 µM | – | – | – | – | – | – | – | – | – | – | – | –
21 | C[C@@H](NC1CCC[C@@H]1O)c1ccccc1 (stereo not given in full) | > 100 µM | > 100 µM | > 100 µM | > 100 µM | > 100 µM | > 100 µM | – | > 100 µM | – | – | – | – | – | – | – | – | – | – | – | –
22 | c1ccc2c(c1)nnn2CNc1ccc(N2CCOCC2)cc1 | > 100 µM | > 100 µM | > 100 µM | – | > 100 µM | > 100 µM | > 100 µM | > 100 µM | – | – | – | – | – | – | – | – | – | – | – | –
23 | O=C(N/C(=C\c1ccc([N+](=O)[O-])cc1)c1nc2ccc(Cl)cc2[nH]1)c1ccccc1 | – | – | > 100 µM | 33.7 µM | 94.6 µM | – | 63.3 µM | 61.3 µM | – | – | – | – | – | – | – | – | – | – | – | –
24 | CC(C)Cc1ccc(C(C)/C=C2\CCC(CN3CCCC3)C2=O)cc1 (stereo not given) | 15.5 µM | 8.49 µM | 18 µM | 28 µM | 33.9 µM | 30 µM | 5.18 µM | 29.7 µM | – | – | – | – | – | – | – | – | – | – | – | –
25 | CCCCNC(=O)Oc1ccc2c(=O)c3sc4c(=O)c5ccccc5c(=O)c4c3c(=O)c2c1 | 1.76 µM | 1.75 µM | 4.76 µM | 0.224 µM | 2.8 µM | 0.421 µM | > 100 µM | 1.58 µM | 0.86 µM | – | 0.334 µM | 0.279 µM | 1.44 µM | – | 0.103 µM | 1.4 µM | 0.77 µM | 0.409 µM | 0.327 µM | 0.189 µM
